The conditions of series [1]: cited from earlier work.
The nature of series [2]: pH of the active ingredients in solution. Format: physicochemical. The text has this:
Although simple amino acids and peptides have been used as excipients in pulmonary delivery, they exist as zwitterions with the free amine being protonated by the carboxylic acid. Since fosfomycin disodium and tobramycin base are basic with pHs of approximately 9.7, and 11 in solution, respectively, a formulation combining fosfomycin disodium and tobramycin base would be expected to be outside of the pH range to be tolerable for administration by inhalation to the pulmonary system. However, with the addition of NAL, the pH range in the lung upon administration of the dry powder formulation of the present invention is between about 7 to about 8, and preferably, from about 7.1 to about 7.7. Without the addition of NAL, a dry powder formulation combining fosfomycin disodium and tobramycin in the same molar ratios would be expected to produce a pH in the lung of about 8.2 (when the pH of tobramycin is adjusted with 2.5 molar equivalent of sulfuric acid) and a pH of about 9.1 (without pH adjustment with sulfuric acid).

For series [3] the following is noted: aerosol administration; cited from earlier work.
In series [4] the test system is E. coli, Proteus spp., Salmonella spp., Shigella spp., and S. marcescens. To be noted: cited from earlier work.

In the case of `NC[C@H]1O[C@H](O[C@H]2[C@H](O)[C@@H](O[C@H]3O[C@H](CO)[C@@H](O)[C@H](N)[C@H]3O)[C@H](N)C[C@@H]2N)[C@H](N)C[C@@H]1O` [tobramycin, Tobramycin], the oral absorption entry in series [1] (in vivo, po) is “poorly absorbed orally”. Moreover, the plasma half-life in series [1] (parenteral administration, excreted by glomerular filtration) is 1 to 2 h. The pH in solution in series [2] is roughly 11. For the same molecule, the sputum levels in series [3] was no less than 1000 µg/mL.

`C[C@@H]1O[C@@H]1P(=O)(O)O` [Fosfomycin]: the “fosfomycin concentration at which organisms are generally inhibited” value in series [4] is no more than 64 µg/mL.

With `C[C@@H]1O[C@@H]1P(=O)(O)O` [fosfomycin disodium], the pH in solution result in series [2] is “approximately 9.7”.

(Values after patent US20140134253A1, “DRY POWDER FOSFOMYCIN/TOBRAMYCIN FORMULATION FOR INHALATION” (Gilead Sciences, Inc., priority 2011, published 2014).)
